Laboratory results as given in US20100113517A1, “METHOD FOR THE TREATMENT OF FABRY DISEASE USING PHARMACOLOGICAL CHAPERONES” (AMICUS THERAPEUTICS, INC., priority 2007, published 2010).
Read-outs that look alike come from different tables or passages of the source.

Tests used:
[1] = biological target: T1, human mutant α-Gal A (R301Q) (Homo sapiens, UniProt P06280, R301Q); conditions: neutral pH; cited from earlier work
T1 construct: Tissue lysates were prepared by homogenizing about 50 mg tissue in assay buffer; from tissue; host or cells: heart, kidney, skin, liver and spleen of R301Q Tg/KO mice (human transgene, mouse α-Gal A knocked out)
T1 sequence (P06280 32-429 R301Q): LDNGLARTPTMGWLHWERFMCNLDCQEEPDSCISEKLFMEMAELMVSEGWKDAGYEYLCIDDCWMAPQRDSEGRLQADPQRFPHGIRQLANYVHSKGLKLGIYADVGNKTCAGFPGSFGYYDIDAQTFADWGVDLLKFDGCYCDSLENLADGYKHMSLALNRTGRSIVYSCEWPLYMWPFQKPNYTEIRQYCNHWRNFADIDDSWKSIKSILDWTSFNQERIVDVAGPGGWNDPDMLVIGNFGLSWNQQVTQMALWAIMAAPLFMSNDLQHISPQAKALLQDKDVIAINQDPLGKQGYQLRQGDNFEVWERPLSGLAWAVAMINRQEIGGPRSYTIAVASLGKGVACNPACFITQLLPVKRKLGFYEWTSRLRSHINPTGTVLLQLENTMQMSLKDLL

mutant (R301Q) α-Gal A = biological target: T2, mutant (R301Q) α-Gal A (Homo sapiens, UniProt P06280, R301Q); conditions: oral administration; cited from earlier work
T2 construct: host or cells: major organs of transgenic mice overexpressing R301Q α-Gal A
T2 sequence (P06280 32-429 R301Q): T1 sequence (P06280 32-429 R301Q)

GL-3 = assay: Phase II study in Fabry patients, GL-3 levels (kidney, skin, urine, plasma); assay type: in vivo, Fabry patients (human)
Protocol: Study Design. A two-arm design was planned. In one arm, eligible patients were given 150 mg of DGJ-HCl every other day for 12 weeks, with an extension up to 48 weeks. In the second arm, escalating doses of 25, 100, and then 250 mg b.i.d. over 6 weeks, followed by 50 mg/day for the remainder of the study.
GL-3 deposits. Skin, kidney and heart biopsies will be performed at baseline, 3 months and six months and evaluated for GL-3 deposits in skin fibroblasts, cardiac myocytes, and various renal cells.
GL-3 levels. […] Urine and plasma GL-3 levels at baseline and after treatment as assessed by liquid chromatography mass spectrometry were available for 10 patients. […] For the few patients that had elevated levels of GL-3 in urine or plasma at baseline, the results were difficult to interpret due to high intra-patient variability.
Skin GL-3 levels at baseline and after treatment as assessed by light and electron microscopy are available for 10 patients.

[2] = Phase II study in Fabry patients, cardiac, renal and central nervous system function; assay type: in vivo, Fabry patients (human); conditions: after 12 to 48 weeks of treatment
Protocol: Study Design. A two-arm design was planned. […] In the second arm, escalating doses of 25, 100, and then 250 mg b.i.d. over 6 weeks, followed by 50 mg/day for the remainder of the study. Cardiac anaylsis. In addition to the biopsies described above, MRIs and echocardiogram with strain rate evaluations will be performed at baseline, 3 and 6 months to assess cardiac morphology (e.g., left ventricular hyertrophy) and cardiac function (e.g., congestive heart failure, ischemia, infarction, arrhythmia). […] Hypertension will also be ealuated since hypertension (associated with renal dysfunction) can increase the risk for hemorrhagic stroke.

[3] = Phase I ascending single oral dose study, pharmacokinetics; assay type: in vivo, healthy volunteers (human); conditions: for half-life / Tmax / CL renal / AUC(0-inf) / AUC(0-t) / Cmax: male, human; for half-life / Tmax / AUC(0-inf) / AUC(0-t) / Cmax: plasma; for CL renal / Ae, cumulative percentage of DGJ excreted over the 12-hour postdose period: urine; for AUC(0-inf) / AUC(0-t) / Cmax: geometric mean
Protocol: This example describes a randomized, double blind, placebo controlled Phase I study of ascending single oral dose of DGJ to evaluate the safety, tolerability and pharmacokinetics of DGJ in healthy volunteers.
Study Design and Duration. […] Dose escalation to the next dose level (i.e., next group) proceeded following review of safety and tolerability of the previous group(s). Subjects were housed in the treatment facility from 14 hours prior to dosing until 24 hours after dosing. Meals were controlled by schedule and subjects remained abulatory for 4 hours post drug administration.
Study Population. Subjects were healthy, non-institutionalized, non-smoking male volunteers between 19 and 50 years of age (inclusive) consisting of members of the community at large.
Pharmacokinetic Sampling. Blood samples (10 mL each) were collected in blood collection tubes containing EDTA before dosing and at the following times thereafter: 0.25, 0.5, 0.75, 1, 1.5, 2, 3, 4, 5, 6, 8, 10, 12, 16 and 24 hours. Blood samples were cooled in an ice bath and centrifuged under refrigeration as soon as possible. Plasma samples were divided into two aliquots an dstored at […] pending assay. At the end of the study, all samples were transferred to MDS Pharma Services Analytical Laboratories (Lincoln) for analysis.
Pharmacokinetic parameters were summarised by treatment group using descriptive statistics (arithmetic means, standard deviations, coefficients of variation, sample size, minimum, maximum and median). In addition, geometric means were calculated for AUC0-t, AUCinf and Cmax.

OCC1NCC(O)C(O)C1O (stereo not shown) [DGJ, 1-deoxygalactonojirimycin]
in vitro stability of mutant α-Gal A [1]: effectively increased | enzyme activity in major organs (mutant (R301Q) α-Gal A): substantially elevated | kidney GL-3 by electron microscopy, one patient (GL-3; 12 weeks of treatment, mesangial cells, glomerular endothelium, distal tubules): observed decrease in GL-3 | kidney GL-3 by electron microscopy, second patient (GL-3; 24 weeks of treatment, same kidney cell types, not independently conclusive (lower baseline GL-3)): showed a decrease of GL-3 levels | GL-3 in other kidney cell types including interstitial capillaries (GL-3; both patients): the decreases were not significant | urine and plasma GL-3 levels by liquid chromatography mass spectrometry (GL-3; most of 10 patients, baseline and after treatment): normal or near normal both before and after treatment | skin GL-3 levels by light and electron microscopy (GL-3; seven of 10 patients, baseline and after treatment): normal or near normal both before and after treatment | cardiac, renal and central nervous system function [2]: no clinically meaningful changes | time of peak concentrations, on average ([3]; all dose levels (25-675 mg single dose)): approximately 3 hours | increase of AUC and Cmax with dose ([3]; doses increased from 25 mg to 225 mg): dose-proportional manner | half-life ([3]; oral, 25-675 mg single dose, read-out: mean half-life across all dose levels): 3 to 4.6 h | Tmax ([3]; single oral dose 25 mg): 3 h | half-life ([3]; single oral dose 25 mg, read-out: t1/2 (converted)): 3.04 h | Tmax ([3]; single oral dose 75 mg): 2.92 h | half-life ([3]; single oral dose 75 mg, read-out: t1/2 (converted)): 4.05 h | Tmax ([3]; single oral dose 225 mg): 3.17 h | half-life ([3]; single oral dose 225 mg, read-out: t1/2 (converted)): 4.62 h | Tmax ([3]; single oral dose 675 mg): 2.67 h | half-life ([3]; single oral dose 675 mg, read-out: t1/2 (converted)): 4.19 h | CL renal ([3]; oral, as doses increased from 25 mg to 675 mg, read-out: mean renal clearance): 98.3 to 128 mL/min | CL renal ([3]; single oral dose 25 mg, read-out: CLR (converted)): 98.3 mL/min | CL renal ([3]; single oral dose 75 mg, read-out: CLR (converted)): 95.5 mL/min | CL renal ([3]; single oral dose 225 mg, read-out: CLR (converted)): 126 mL/min | CL renal ([3]; single oral dose 675 mg, read-out: CLR (converted)): 128 mL/min | AUC(0-inf) ([3]; single oral dose 25 mg): 1130 ng·h/mL | AUC(0-t) ([3]; single oral dose 25 mg): 1090 ng·h/mL | Cmax ([3]; single oral dose 25 mg): 201 ng/mL | AUC(0-inf) ([3]; single oral dose 75 mg): 4730 ng·h/mL | AUC(0-t) ([3]; single oral dose 75 mg): 4660 ng·h/mL | Cmax ([3]; single oral dose 75 mg): 685 ng/mL | AUC(0-inf) ([3]; single oral dose 225 mg): 11400 ng·h/mL | AUC(0-t) ([3]; single oral dose 225 mg): 11200 ng·h/mL | Cmax ([3]; single oral dose 225 mg): 2000 ng/mL | AUC(0-inf) ([3]; single oral dose 675 mg): 35700 ng·h/mL | AUC(0-t) ([3]; single oral dose 675 mg): 35300 ng·h/mL | Cmax ([3]; single oral dose 675 mg): 6490 ng/mL | Ae, cumulative percentage of DGJ excreted over the 12-hour postdose period ([3]; single oral dose 25 mg): 8.78% | Ae, cumulative percentage of DGJ excreted over the 12-hour postdose period ([3]; single oral dose 75 mg): 23.4% | Ae, cumulative percentage of DGJ excreted over the 12-hour postdose period ([3]; single oral dose 225 mg): 40.3% | Ae, cumulative percentage of DGJ excreted over the 12-hour postdose period ([3]; single oral dose 675 mg): 39.6%
